The values that follow come from publication PMC9995496, “A screen for MeCP2-TBL1 interaction inhibitors using a luminescence-based assay” (Scientific Reports, 2023).

In the test the test system is PRKACA-PRKAR2A interaction (SmBiT-PRKACA / LgBiT-PRKAR2A), protein kinase A. Details: NanoLuc complementation counter-screen in cell extract, PRKACA with PRKAR2A, loss of luminescence, detects NanoLuc interference. To be noted: counter-screen for NanoLuc interference, 0.5 h, 20 µM, inhibitor. In general terms: A counterscreen serves to expose hits that act by an unwanted route or on another target.

Structures are written as SMILES. Structures can show the parent of a compound that is named as a salt. Where two headings read alike, the source gives them in different places.

For the molecule `Cc1ccc(Nc2ncc3c(n2)N(C)C(=O)N(c2cc(NC(=O)c4cccc(C(F)(F)F)c4)ccc2C)C3)cn1` [UM0142721:01, GNF-7], the “Inh (PKA)” value is reported as 15.96%. Consider `NCCS(=O)(=O)O` [UM0120232:03, Taurine], for which the “Inh (PKA)” value was -1.533%. For the molecule `Cc1ccc(/C=C2\CNC/C(=C\c3ccc(C)cc3)C2=O)cc1` [UM0141659:01, NSC 632839 hydrochloride], the “Inh (PKA)” value is 12.94%. Take `CS(=O)(=O)Nc1ccc([N+](=O)[O-])cc1OC1CCCCC1` [UM0142773:01, NS 398]: the “Inh (PKA)” value is 50.11%.

Consider `COc1cc2c(NC3CCN(CC4CCCCC4)CC3)nc(N3CCCN(C(C)C)CC3)nc2cc1OCCCN1CCCCC1` [UM0142178:01, UNC 0631], for which the “Inh (PKA)” value turned out to be 0.9058%. Same read-out and setting: the result for `Clc1ccc2c(c1)C(N1CCNCC1)=Nc1ccccc1O2` [UM0133517:02, Amoxapine] reads 7.389%; that for `Nc1c(CC(=O)O)cccc1C(=O)c1ccc(Br)cc1` [UM0142342:01, Bromfenac Sodium], 5.05%. `O=C(O)Cc1ccccc1Nc1c(Cl)cccc1Cl` [UM0142393:01, Diclofenac Diethylamine]: the “Inh (PKA)” value (Inh (PKA)) came to 11.28%. Take `CCCCCCCCCCCCCCCc1cccc(O)c1C(=O)O` [UM0128565:02, Anacardic acid]: the “Inh (PKA)” value was found to be 5.402%. `Cc1cc(C)cc(C(=O)NOCCCCCC(=O)NO)c1` [UM0141845:01, LMK 235]: the “Inh (PKA)” value is -1.396%. Still for that read-out and setting: the result for `Cc1ncc(-c2ccnc(Nc3ccc(S(C)(=O)=O)cc3)n2)n1C(C)C` [UM0141991:01, AZD-5438] reads 13.33%. The same measure, in the same setting: in the case of `Cc1cc(CN2CCN(c3c(Br)cnc4nc(-c5ccc(N6CCN(C)CC6)cc5)[nH]c34)CC2)no1` [UM0141727:01, CCT137690] it was 46.74%; in that of `Cc1cccc(Nc2cc(Cl)nc(SCC(=O)O)n2)c1C` [UM0141774:01, WY-14643 (Pirinixic Acid)], 22.49%; in that of `COC(=O)N1CCN(Cc2cccc(NC(=O)Nc3ccc(C)nc3)c2F)CC1` [UM0142008:01, Omecamtiv mecarbil], 3.022%. As for `COc1ccc(C(Cl)=C(c2ccc(OC)cc2)c2ccc(OC)cc2)cc1` [UM0118083:03, Chlorotrianisene], the “Inh (PKA)” value came out at 17.63%. As to `Cc1nnc(C(=O)NC(C)(C)c2nc(C(=O)NCc3ccc(F)cc3)c(O)c(=O)n2C)o1` [UM0141693:01, Raltegravir (MK-0518)], the “Inh (PKA)” value is 1.324%. On to `CCn1c(C(=O)N(C2CC2)C2CC2)cc2c3c(ncn3C)c(Nc3cc(C)n(C)n3)nc21` [UM0141734:01, BMS-911543], for which the “Inh (PKA)” value amounted to 4.215%. Turning to `C=CC(=O)Nc1cccc(Sc2nc(Nc3ccc(N4CCN(C)CC4)cc3)ncc2Cl)c1` [UM0141398:01, WZ8040], the “Inh (PKA)” value is reported as 37.33%.

`COc1cc(/C=C/CO)cc(OC)c1O[C@@H]1O[C@H](CO)[C@@H](O)[C@H](O)[C@H]1O` [UM0142842:01, Syringin]: the “Inh (PKA)” value is -0.4642%. Same read-out and setting: in the case of `CCN(CC)CCN(Cc1ccc(-c2ccc(C(F)(F)F)cc2)cc1)C(=O)Cn1c(SCc2ccc(F)cc2)nc(=O)c2c1CCC2` [UM0141541:01, Darapladib] it was 8.505%; in that of `CC1(C)CNc2cc(NC(=O)c3cccnc3NCc3ccncc3)ccc21` [UM0141862:01, Motesanib Diphosphate (AMG-706)], 38.44%; in that of `CC[C@@H]1/C=C(\C)C[C@H](C)C[C@H](OC)[C@H]2O[C@@](O)(C(=O)C(=O)N3CCCC[C@H]3C(=O)O[C@H](/C(C)=C/[C@@H]3CC[C@H](Cl)[C@H](OC)C3)[C@H](C)[C@@H](O)CC1=O)[C@H](C)C[C@@H]2OC` [UM0142376:01, Pimecrolimus], 0.5953%. Regarding `c1ccc2c(Oc3nc(Nc4ccc(N5CCOCC5)cc4)c4ncn(C5CCCCC5)c4n3)cccc2c1` [UM0141962:01, Purmorphamine], the “Inh (PKA)” value is 11.44%. Consider `C=C(C)[C@@H]1CC[C@]2(C(=O)O)CC[C@]3(C)[C@H](CC[C@@H]4[C@@]5(C)CC[C@H](O)C(C)(C)[C@@H]5CC[C@]43C)[C@@H]12` [UM0118149:03, Betulinic acid], for which the “Inh (PKA)” value stood at 14.84%. In the case of `CC(C)Nc1cc(-c2c[nH]c(C(=O)N[C@H](CO)c3cccc(Cl)c3)c2)c(Cl)cn1` [UM0142171:01, VRT752271], the “Inh (PKA)” value is recorded as 17.24%. With `C=C1C(=O)[C@]23[C@H](O)[C@H]1CC[C@H]2[C@@]12CO[C@]3(O)[C@@H](O)[C@@H]1C(C)(C)CC[C@@H]2O` [oridonin], the “Inh (PKA)” value turned out to be 14.12%.

As to `O=C(O)CCc1ccc(NCc2cccc(Oc3ccccc3)c2)cc1` [UM0141410:01, GW9508], the “Inh (PKA)” value is listed as 28.45%. For `CN(C)Cc1cccc(N/C(=C2\C(=O)Nc3cc(C(N)=O)ccc32)c2ccccc2)c1` [UM0141912:01, BIX 02188], the “Inh (PKA)” value was determined as 13.5%. With `C=CC[C@@H]1/C=C(\C)C[C@H](C)C[C@H](OC)[C@H]2O[C@@](O)(C(=O)C(=O)N3CCCC[C@H]3C(=O)O[C@H](/C(C)=C/[C@@H]3CC[C@@H](O)[C@H](OC)C3)[C@H](C)[C@@H](O)CC1=O)[C@H](C)C[C@@H]2OC` [UM0132999:02, Tacrolimus (FK506)], the “Inh (PKA)” value is listed as 15.44%.

With `O=C1C2CCN(CC2)C1(CO)CO` [UM0141841:01, PRIMA-1], the “Inh (PKA)” value is recorded as 1.308%. Same read-out and setting: the result for `CN(Cc1cnc2nc(N)nc(N)c2n1)c1ccc(C(=O)N[C@@H](CCC(=O)O)C(=O)O)cc1` [UM0133539:02, Methotrexate] reads 2.622%; that for `CC(=O)[C@]1(N)Cc2c(O)c3c(c(O)c2[C@@H](O[C@H]2C[C@H](O)[C@H](O)CO2)C1)C(=O)c1ccccc1C3=O` [UM0141961:01, Amrubicin], 25.46%; that for `CN(C)S(=O)(=O)c1ccc2c(c1)/C(=C/c1cc3c([nH]1)CCCC3)C(=O)N2` [UM0142659:01, SU6656], 52.64%. Same read-out and setting: the result for `CCCCN(Cc1ccc(C(=O)NO)cc1)C(=O)Nc1ccccc1` [UM0142549:01, Nexturastat A] reads 2.476%; that for `CCCc1nc(C)c2c(O)nc(-c3cc(S(=O)(=O)N4CCN(CC)CC4)ccc3OCC)nn12` [UM0141782:01, Vardenafil HCl Trihydrate], 3.783%. On the same count and under the same terms, the result for `CCN1CC(CCN2CCOCC2)C(c2ccccc2)(c2ccccc2)C1=O` (stereo not drawn) [UM0142035:01, Doxapram HCl] reads 1.453%. Consider `Cc1cccc(-c2[nH]c(C(C)(C)C)nc2-c2ccc3c(c2)OCO3)n1` [UM0142475:01, SB505124], for which the “Inh (PKA)” value (Inh (PKA)) is 12.17%. As for `C#CCN[C@@H]1CCc2ccccc21` [UM0141810:01, Rasagiline Mesylate], the “Inh (PKA)” value worked out at 2.611%.

For `NC(=O)c1ccc(-c2nc(-c3ccc4c(c3)OCCO4)c(-c3ccccn3)[nH]2)cc1` [UM0127827:02, D4476], the “Inh (PKA)” value turned out to be 37.52%.

As for `Cn1cc(C2=C(c3cn(C4CCN(Cc5ccccn5)CC4)c4ccccc34)C(=O)NC2=O)c2ccccc21` [UM0130974:02, Enzastaurin (LY317615)], the “Inh (PKA)” value turned out to be 49.88%. For `O[C@@H](c1cc(C(F)(F)F)nc2c(C(F)(F)F)cccc12)[C@H]1CCCCN1` [UM0141561:02, Mefloquine hydrochloride], the “Inh (PKA)” value was found to be 15.66%. As for `COCC1(CO)C(=O)C2CCN1CC2` (stereo not drawn) [UM0141842:01, PRIMA-1MET], the “Inh (PKA)” value is 2.921%.
